Like-named read-outs stand apart in the source and are kept apart here.
Experiments:
Test in all cases: biochemical
Parameters in all cases: KINOMEscan scanMAX competition binding, DNA-tagged kinases, qPCR read-out, percent control at 300 nM
SRPK1 = SRPK1 (Homo sapiens, UniProt Q96SB4)
CDK4-cyclinD3 = target: T1, CDK4-cyclinD3 (Homo sapiens, UniProt P11802)
T1 construct: cyclinD3

MAP4K5 = MAP4K5 (Homo sapiens, UniProt Q9Y4K4)
NDR1 = target: T2, NDR1 (Homo sapiens, UniProt Q15208)
T2 construct: gene STK38

DDR1 = DDR1 (Homo sapiens, UniProt Q08345)
FLT3(D835Y) = FLT3(D835Y) (Homo sapiens, UniProt P36888, D835Y)
ERK5 = target: T3, ERK5 (Homo sapiens, UniProt Q13164)
T3 construct: gene MAPK7

SgK110 = target: T4, SgK110 (Homo sapiens, UniProt P0C264)
T4 construct: gene SBK3

[1] = target: T5, ABL1(T315I)-phosphorylated (Homo sapiens, UniProt P00519, T315I)
T5 construct: phosphorylated

AKT2 = AKT2 (Homo sapiens, UniProt P31751)
LYN = LYN (Homo sapiens, UniProt P07948)
ROCK1 = ROCK1 (Homo sapiens, UniProt Q13464)
MKNK2 = MKNK2 (Homo sapiens, UniProt Q9HBH9)
CDC2L1 = target: T6, CDC2L1 (Homo sapiens, UniProt P21127)
T6 construct: gene CDK11B

ADCK3 = target: T7, ADCK3 (Homo sapiens, UniProt Q8NI60)
T7 construct: gene COQ8A

MLK2 = target: T8, MLK2 (Homo sapiens, UniProt Q02779)
T8 construct: gene MAP3K10

TIE2 = target: T9, TIE2 (Homo sapiens, UniProt Q02763)
T9 construct: gene TEK

[2] = target: T10, TYK2(JH1domain-catalytic) (Homo sapiens, UniProt P29597)
T10 construct: JH1domain-catalytic

PLK4 = PLK4 (Homo sapiens, UniProt O00444)
MERTK = MERTK (Homo sapiens, UniProt Q12866)
MYLK4 = MYLK4 (Homo sapiens, UniProt Q86YV6)
DCAMKL3 = target: T11, DCAMKL3 (Homo sapiens, UniProt Q9C098)
T11 construct: gene DCLK3

MAK = MAK (Homo sapiens, UniProt P20794)
[3] = read-out: Percent control / Acalabrutinib
[4] = read-out: Percent control / Ibrutinib
[5] = read-out: Percent control / Tirabrutinib
[6] = read-out: Percent control / Zanubrutinib

MKNK2, sequence (Q9HBH9 whole entry): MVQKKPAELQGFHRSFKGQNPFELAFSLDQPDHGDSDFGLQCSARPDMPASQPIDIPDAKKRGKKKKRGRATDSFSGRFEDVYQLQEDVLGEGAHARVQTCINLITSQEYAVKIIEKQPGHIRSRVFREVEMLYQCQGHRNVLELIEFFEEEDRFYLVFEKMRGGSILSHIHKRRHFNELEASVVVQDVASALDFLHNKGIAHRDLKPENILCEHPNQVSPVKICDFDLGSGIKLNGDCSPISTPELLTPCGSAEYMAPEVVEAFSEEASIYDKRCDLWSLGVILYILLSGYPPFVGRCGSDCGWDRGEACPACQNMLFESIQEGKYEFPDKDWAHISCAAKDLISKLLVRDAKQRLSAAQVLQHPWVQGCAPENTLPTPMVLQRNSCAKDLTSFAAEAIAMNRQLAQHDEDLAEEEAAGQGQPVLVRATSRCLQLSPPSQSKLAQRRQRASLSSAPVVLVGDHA
SRPK1, sequence (Q96SB4 whole entry): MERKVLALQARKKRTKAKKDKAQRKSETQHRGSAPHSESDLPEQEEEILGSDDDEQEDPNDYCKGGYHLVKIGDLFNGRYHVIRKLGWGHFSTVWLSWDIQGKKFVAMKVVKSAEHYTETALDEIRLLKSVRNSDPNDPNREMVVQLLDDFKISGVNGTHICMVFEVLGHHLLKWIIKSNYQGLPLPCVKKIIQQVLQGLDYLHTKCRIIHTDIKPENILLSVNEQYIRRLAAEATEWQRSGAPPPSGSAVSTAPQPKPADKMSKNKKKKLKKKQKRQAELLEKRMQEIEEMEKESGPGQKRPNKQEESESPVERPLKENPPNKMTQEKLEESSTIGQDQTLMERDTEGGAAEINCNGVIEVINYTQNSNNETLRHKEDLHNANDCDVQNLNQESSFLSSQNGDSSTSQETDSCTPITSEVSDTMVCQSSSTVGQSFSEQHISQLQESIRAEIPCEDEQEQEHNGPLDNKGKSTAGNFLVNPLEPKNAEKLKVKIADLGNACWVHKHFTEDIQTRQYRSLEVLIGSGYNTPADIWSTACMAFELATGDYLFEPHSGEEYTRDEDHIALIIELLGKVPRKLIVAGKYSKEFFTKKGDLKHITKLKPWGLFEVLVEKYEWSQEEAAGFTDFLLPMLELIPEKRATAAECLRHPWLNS
T10 sequence (P29597 whole entry): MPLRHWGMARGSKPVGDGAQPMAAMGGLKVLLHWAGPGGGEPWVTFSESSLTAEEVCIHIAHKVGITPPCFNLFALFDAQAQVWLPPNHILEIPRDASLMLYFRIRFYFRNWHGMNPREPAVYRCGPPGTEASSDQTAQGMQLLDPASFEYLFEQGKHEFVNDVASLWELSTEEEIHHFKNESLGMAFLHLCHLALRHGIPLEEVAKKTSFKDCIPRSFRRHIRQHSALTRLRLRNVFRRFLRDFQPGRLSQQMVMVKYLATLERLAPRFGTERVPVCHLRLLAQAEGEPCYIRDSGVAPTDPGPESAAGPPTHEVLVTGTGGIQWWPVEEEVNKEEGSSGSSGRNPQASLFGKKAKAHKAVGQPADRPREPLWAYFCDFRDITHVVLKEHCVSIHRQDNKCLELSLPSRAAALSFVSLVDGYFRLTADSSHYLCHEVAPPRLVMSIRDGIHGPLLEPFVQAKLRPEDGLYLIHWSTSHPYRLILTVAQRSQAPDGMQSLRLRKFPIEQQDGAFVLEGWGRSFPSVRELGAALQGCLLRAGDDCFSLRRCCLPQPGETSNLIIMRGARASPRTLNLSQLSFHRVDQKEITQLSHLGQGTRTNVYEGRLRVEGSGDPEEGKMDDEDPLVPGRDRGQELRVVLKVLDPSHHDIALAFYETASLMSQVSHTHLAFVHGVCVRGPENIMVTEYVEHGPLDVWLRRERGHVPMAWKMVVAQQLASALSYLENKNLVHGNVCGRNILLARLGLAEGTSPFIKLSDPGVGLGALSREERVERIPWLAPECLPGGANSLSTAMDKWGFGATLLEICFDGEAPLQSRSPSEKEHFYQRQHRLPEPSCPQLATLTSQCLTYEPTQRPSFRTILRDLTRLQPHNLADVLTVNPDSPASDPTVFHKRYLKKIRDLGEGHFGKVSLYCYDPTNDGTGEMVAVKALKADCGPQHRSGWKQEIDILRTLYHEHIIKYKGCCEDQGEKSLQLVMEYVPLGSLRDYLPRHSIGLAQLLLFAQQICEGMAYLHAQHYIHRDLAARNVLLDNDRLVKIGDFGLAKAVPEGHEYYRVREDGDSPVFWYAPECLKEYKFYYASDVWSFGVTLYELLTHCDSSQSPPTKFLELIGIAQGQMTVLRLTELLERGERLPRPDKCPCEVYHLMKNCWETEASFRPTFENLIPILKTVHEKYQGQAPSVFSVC
T4 sequence (P0C264 whole entry): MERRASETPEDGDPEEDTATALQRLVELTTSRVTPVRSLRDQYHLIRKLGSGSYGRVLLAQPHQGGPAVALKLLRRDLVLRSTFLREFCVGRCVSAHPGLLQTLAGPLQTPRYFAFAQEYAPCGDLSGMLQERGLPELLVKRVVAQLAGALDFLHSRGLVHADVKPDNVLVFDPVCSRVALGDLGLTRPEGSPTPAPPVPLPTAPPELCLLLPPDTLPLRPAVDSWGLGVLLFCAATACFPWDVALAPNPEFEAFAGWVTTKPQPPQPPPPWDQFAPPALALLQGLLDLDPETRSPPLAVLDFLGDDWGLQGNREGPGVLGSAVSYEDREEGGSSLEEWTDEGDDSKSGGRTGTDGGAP
T3 sequence (Q13164 whole entry): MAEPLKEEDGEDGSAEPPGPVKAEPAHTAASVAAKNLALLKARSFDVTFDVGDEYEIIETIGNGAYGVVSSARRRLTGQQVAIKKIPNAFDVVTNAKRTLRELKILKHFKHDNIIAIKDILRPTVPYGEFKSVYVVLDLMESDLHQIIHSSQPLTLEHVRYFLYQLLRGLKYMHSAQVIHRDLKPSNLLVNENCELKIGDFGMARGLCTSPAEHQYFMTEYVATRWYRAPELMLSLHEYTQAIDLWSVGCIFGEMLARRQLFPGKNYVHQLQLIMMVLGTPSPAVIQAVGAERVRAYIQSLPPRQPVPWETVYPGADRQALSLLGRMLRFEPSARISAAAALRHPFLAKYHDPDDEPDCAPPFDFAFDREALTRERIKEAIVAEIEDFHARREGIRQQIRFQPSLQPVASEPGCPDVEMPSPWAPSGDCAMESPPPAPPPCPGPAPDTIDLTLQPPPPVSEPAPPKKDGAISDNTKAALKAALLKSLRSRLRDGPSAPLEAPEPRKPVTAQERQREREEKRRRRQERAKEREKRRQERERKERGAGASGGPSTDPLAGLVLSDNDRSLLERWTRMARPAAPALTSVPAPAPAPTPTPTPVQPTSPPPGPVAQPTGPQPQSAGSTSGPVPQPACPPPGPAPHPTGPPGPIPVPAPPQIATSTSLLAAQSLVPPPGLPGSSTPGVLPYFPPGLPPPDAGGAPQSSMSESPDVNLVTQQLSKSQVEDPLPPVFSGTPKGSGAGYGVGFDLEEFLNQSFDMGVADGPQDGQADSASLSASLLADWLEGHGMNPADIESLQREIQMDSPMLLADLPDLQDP
ROCK1, sequence (Q13464 whole entry): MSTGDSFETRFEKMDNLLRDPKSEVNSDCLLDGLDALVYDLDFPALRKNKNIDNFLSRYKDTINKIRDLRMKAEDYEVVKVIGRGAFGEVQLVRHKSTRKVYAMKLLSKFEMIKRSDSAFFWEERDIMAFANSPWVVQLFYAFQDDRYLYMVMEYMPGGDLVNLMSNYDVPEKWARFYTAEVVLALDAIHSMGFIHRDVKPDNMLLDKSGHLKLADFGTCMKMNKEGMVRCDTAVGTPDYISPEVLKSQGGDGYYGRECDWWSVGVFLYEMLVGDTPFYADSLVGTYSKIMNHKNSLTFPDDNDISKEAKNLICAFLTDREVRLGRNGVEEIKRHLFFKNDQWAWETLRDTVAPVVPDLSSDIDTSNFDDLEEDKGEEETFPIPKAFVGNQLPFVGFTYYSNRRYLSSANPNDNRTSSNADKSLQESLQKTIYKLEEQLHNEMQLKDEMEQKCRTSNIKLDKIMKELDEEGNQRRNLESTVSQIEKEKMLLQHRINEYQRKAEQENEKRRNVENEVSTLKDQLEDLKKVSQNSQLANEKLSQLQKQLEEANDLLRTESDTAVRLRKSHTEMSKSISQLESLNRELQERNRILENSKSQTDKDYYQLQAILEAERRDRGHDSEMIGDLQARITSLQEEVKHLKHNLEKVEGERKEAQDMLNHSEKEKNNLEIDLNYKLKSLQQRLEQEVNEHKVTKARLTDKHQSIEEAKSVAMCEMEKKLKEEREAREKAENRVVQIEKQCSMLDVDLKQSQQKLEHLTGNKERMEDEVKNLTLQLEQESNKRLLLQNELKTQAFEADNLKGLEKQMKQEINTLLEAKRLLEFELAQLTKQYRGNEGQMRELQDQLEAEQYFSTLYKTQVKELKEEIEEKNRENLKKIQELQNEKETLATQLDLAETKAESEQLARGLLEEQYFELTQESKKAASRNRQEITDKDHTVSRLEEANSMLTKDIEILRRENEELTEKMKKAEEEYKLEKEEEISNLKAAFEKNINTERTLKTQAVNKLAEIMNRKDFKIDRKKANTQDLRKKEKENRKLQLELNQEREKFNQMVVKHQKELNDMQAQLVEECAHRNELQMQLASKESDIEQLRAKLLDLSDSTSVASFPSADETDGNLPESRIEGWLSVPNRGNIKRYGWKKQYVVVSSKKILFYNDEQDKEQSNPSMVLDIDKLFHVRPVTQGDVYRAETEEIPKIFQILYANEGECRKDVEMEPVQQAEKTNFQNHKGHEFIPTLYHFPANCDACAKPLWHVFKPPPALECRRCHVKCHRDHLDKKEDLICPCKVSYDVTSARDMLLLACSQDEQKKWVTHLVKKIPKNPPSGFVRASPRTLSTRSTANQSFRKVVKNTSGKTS

Compound `CC#CC(=O)N1CCC[C@H]1c1nc(-c2ccc(C(=O)Nc3ccccn3)cc2)c2c(N)nccn12` [Acalabrutinib] has a remaining binding at 0.3 µM (SRPK1; [3]) of 84%, a remaining binding at 0.3 µM (CDK4-cyclinD3; [3]) of 97% and a remaining binding at 0.3 µM (MAP4K5; [3]) of 90%. It also gave a remaining binding at 0.3 µM (NDR1; [3]) of 97%, a remaining binding at 0.3 µM (DDR1; [3]) of 86% and a remaining binding at 0.3 µM (FLT3(D835Y); [3]) of 82%. For the same compound, the remaining binding at 0.3 µM (ERK5; [3]) was 97%, the remaining binding at 0.3 µM (SgK110; [3]) was 94% and the remaining binding at 0.3 µM [1, 3] was 97%. The remaining binding at 0.3 µM (AKT2; [3]) was 87%, the remaining binding at 0.3 µM (LYN; [3]) was 88% and the remaining binding at 0.3 µM (ROCK1; [3]) was 93%. The remaining binding at 0.3 µM (MKNK2; [3]) was 93% and the remaining binding at 0.3 µM (CDC2L1; [3]) was 93%.
`C=CC(=O)N1CCC[C@@H](n2nc(-c3ccc(Oc4ccccc4)cc3)c3c(N)ncnc32)C1` [Ibrutinib] gave a remaining binding at 0.3 µM (SRPK1; [4]) of 85%, a remaining binding at 0.3 µM (ADCK3; [4]) of 98% and a remaining binding at 0.3 µM (MLK2; [4]) of 90%. The remaining binding at 0.3 µM (TIE2; [4]) was 72%, the remaining binding at 0.3 µM [2, 4] was 87% and the remaining binding at 0.3 µM (PLK4; [4]) was 86%. It also gave a remaining binding at 0.3 µM (MERTK; [4]) of 70% and a remaining binding at 0.3 µM (MYLK4; [4]) of 94%.
For `CC#CC(=O)N1CC[C@@H](n2c(=O)n(-c3ccc(Oc4ccccc4)cc3)c3c(N)ncnc32)C1` [Tirabrutinib], the remaining binding at 0.3 µM (ADCK3; [5]) was 95%, the remaining binding at 0.3 µM (MLK2; [5]) was 77% and the remaining binding at 0.3 µM (DCAMKL3; [5]) was 99%. It also gave a remaining binding at 0.3 µM (MAK; [5]) of 94%, a remaining binding at 0.3 µM [1, 5] of 73% and a remaining binding at 0.3 µM (LYN; [5]) of 76%.
`C=CC(=O)N1CCC([C@@H]2CCNc3c(C(N)=O)c(-c4ccc(Oc5ccccc5)cc4)nn32)CC1` [Zanubrutinib] showed a remaining binding at 0.3 µM (CDK4-cyclinD3; [6]) of 98%, a remaining binding at 0.3 µM (MAP4K5; [6]) of 98% and a remaining binding at 0.3 µM (NDR1; [6]) of 97%. It also gave a remaining binding at 0.3 µM (DDR1; [6]) of 100%, a remaining binding at 0.3 µM (TIE2; [6]) of 99% and a remaining binding at 0.3 µM (FLT3(D835Y); [6]) of 47%. It also gave a remaining binding at 0.3 µM (ERK5; [6]) of 84%, a remaining binding at 0.3 µM (SgK110; [6]) of 91% and a remaining binding at 0.3 µM (DCAMKL3; [6]) of 100%. It also gave a remaining binding at 0.3 µM (MAK; [6]) of 100%, a remaining binding at 0.3 µM (AKT2; [6]) of 82% and a remaining binding at 0.3 µM (ROCK1; [6]) of 92%. It also gave a remaining binding at 0.3 µM [2, 6] of 82%, a remaining binding at 0.3 µM (MKNK2; [6]) of 84% and a remaining binding at 0.3 µM (CDC2L1; [6]) of 90%. For the same compound, the remaining binding at 0.3 µM (PLK4; [6]) was 84%, the remaining binding at 0.3 µM (MERTK; [6]) was 91% and the remaining binding at 0.3 µM (MYLK4; [6]) was 96%.
